EP3072514A1, “Novel oral anticoagulants (NOACs) for preventing development and aggravation of atrial fibrillation” (Université Pierre et Marie Curie - Paris 6 (UPMC), priority 2015, dated 2016)

Experiments:
[1] = Plasma concentration by LC-MS/MS in I/R rats; set-up: species or system Male OFA Sprague-dawley rats; conditions: rat, in vivo; 25 mg/kg/day (12.5 mg/kg BID) by force-feeding, 4 weeks; blood 90 minutes after last oral administration; ± SD
Excerpt: • Figure 1 is a combination of two graphs showing left atrium (LA) area after one month of treatment with DTI Dabigatran (A) or S35792 (B). Vehicle (V) is 60% H2O/40% PEG 300 for dabigatran and saline for S35972. Treatment of rats started just after thoracotomy without (Sham) or with occlusion of left coronary artery followed by reperfusion (I/R). Results are presented as mean +/- S.E.M, *P<0.05, **P<0.01 and *** P<0.001 vs Sham; ^##P<0.01 and ^###P<0.001 vs untreated I/R. • Figure 2 is a combination of graphs showing left ventricular end-diastolic (LVED) diameter and fractional shortening (FS) after one month of treatment with Dabigatran (A) or S35792 (B). Vehicle (V) is 60% H2O/40% PEG 300 for dabigatran and saline for S35972. Treatment of rats started just after thoracotomy without (Sham) or with occlusion of left coronary artery followed by reperfusion (I/R). Results are presented as mean +/- S.E.M. * P<0.05; ** P<0.001, *** P<0.001 vs Sham; #P<0.05 vs untreated I/R. • Figure 3 is a combination of two graphs showing thrombin time (TT), which reflects anticoagulant activity, and plasma concentrations of Dabigatran (A) and S35792 (B) in rats after throracotomy with occlusion of left coronary artery followed by reperfusion (I/R). Vehicle (V) is 60% H2O/40% PEG 300 for dabigatran and saline for S35972. […] DTI plasma levels are quantified using LC-MS/MS. TT are expressed as mean +/- S.E.M with reference to the mean value of sham animals that underwent thoracotomy only. *** P<0.001 vs untreated I/R. • Figure 4 is a combination of three graphs showing left atrium (LA) area (A) and diameter (B) and left ventricle end-diastolic (LVED) diameter (C) after two months of treatment with S35972. […] LA area was measured by bidimensional echocardiography. LA and LVED diameters were measured in time-motion mode. […] AF duration is measured as the time between the end of the electric stimulation and the return to sinusoidal rhythm. […] Expression of mRNA was measured with real-time qPCR. […] Expression of mRNA was measured with real-time qPCR. […]

[2] = test system: blood coagulation; experiment: Thrombin time (TT) on blood collected by cardiac puncture at sacrifice of I/R rats; assay type: in vivo, Male OFA Sprague-dawley rats; conditions: 25 mg/kg/day (12.5 mg/kg BID) by force-feeding; with reference to the mean value of sham animals
Excerpt: • Figure 1 is a combination of two graphs showing left atrium (LA) area after one month of treatment with DTI Dabigatran (A) or S35792 (B). Vehicle (V) is 60% H2O/40% PEG 300 for dabigatran and saline for S35972. Treatment of rats started just after thoracotomy without (Sham) or with occlusion of left coronary artery followed by reperfusion (I/R). […] Vehicle (V) is 60% H2O/40% PEG 300 for dabigatran and saline for S35972. Treatment of rats started just after thoracotomy without (Sham) or with occlusion of left coronary artery followed by reperfusion (I/R). Results are presented as mean +/- S.E.M. * P<0.05; ** P<0.001, *** P<0.001 vs Sham; #P<0.05 vs untreated I/R. • Figure 3 is a combination of two graphs showing thrombin time (TT), which reflects anticoagulant activity, and plasma concentrations of Dabigatran (A) and S35792 (B) in rats after throracotomy with occlusion of left coronary artery followed by reperfusion (I/R). Vehicle (V) is 60% H2O/40% PEG 300 for dabigatran and saline for S35972. […] DTI plasma levels are quantified using LC-MS/MS. TT are expressed as mean +/- S.E.M with reference to the mean value of sham animals that underwent thoracotomy only. *** P<0.001 vs untreated I/R. • Figure 4 is a combination of three graphs showing left atrium (LA) area (A) and diameter (B) and left ventricle end-diastolic (LVED) diameter (C) after two months of treatment with S35972. […] LA area was measured by bidimensional echocardiography. LA and LVED diameters were measured in time-motion mode. […] AF duration is measured as the time between the end of the electric stimulation and the return to sinusoidal rhythm. […] Expression of mRNA was measured with real-time qPCR. […] Expression of mRNA was measured with real-time qPCR. […] Expression of mRNA was measured with real-time qPCR. […] LA area was measured by bidimensional echocardiography. LVED and LA diameters were measured in time-motion mode. […] AF duration is measured as the time between the end of the electric stimulation and return to sinusoidal rhythm. […]

## [H]/N=C(/N)c1ccc(NCc2nc3cc(C(=O)N(CCC(=O)O)c4ccccn4)ccc3n2C)cc1 [dabigatran, reference compound]
[1]
  concentration at 1.5 h: 49.2 ± 19.3 ng/mL
[2]
  thrombin time increases by a factor: 8
